Laboratory results taken from US10357576B2, “18F-labelled folate/antifolate analogues” (MERCK & CIE, priority 2012, dated 2019).

Columns and labels:
KB cells = assay: In vitro cell uptake and internalization studies; type: cell-based, human; conditions: two hours of incubation, 37° C.
Description: Cell Culture: KB cells (human cervical carcinoma cell line, HeLa subclone; ACC-136) were purchased from the German Collection of Microorganisms and Cell Cultures (DSMZ, Braunschweig, Germany). The cells were cultured as monolayers at 37° C. in a humidified atmosphere containing 5% CO2. […] FFRPMI medium was supplemented with 10% heat-inactivated fetal calf serum (FCS, as the only source of folate), L-glutamine and antibiotics (penicillin/streptomycin/fungizone). Routine culture treatment was performed twice a week with EDTA (2.5 mmol/l) in PBS.
KB cells were seeded in 12-well plates to grow over night (˜700,000 cells in 2 ml FFRPMI medium/well). [^18F]-3′-aza-2′-fluorofolic acid ([…], 170 kBq) was added to each well. […] After incubation for 1 h or 2 h at 37° C. the cells were washed three times with PBS to determine total cell uptake of 3′-aza-2′-[^18F]fluorofolic acid. […] The cell suspensions were transferred to 4 ml tubes and the samples were counted in a −counter. After homogenization by vortex, the concentration of proteins was determined for each sample by a Micro BCA Protein Assay kit in order to standardize measured radioactivity to the average content of 0.3 mg protein in a single well. […]

KB tumor xenografts = assay: PET imaging studies in KB tumor-bearing mice; type: in vivo
Description: PET experiments were performed with an eXplore VISTA PET/CT tomograph (GE). Tumor bearing mice were injected with 10-18 MBq of 3′-aza-2′-[^18F]fluorofolic acid (100-150 μl per injection) via lateral tail vein. […] Animals were anesthetized with isoflurane in an air/oxygen mixture. The PET scans were acquired from 120-150 min p.i. After acquisition, PET data were reconstructed in user-defined time frames. The fused datasets of PET and CT were analyzed with PMOD (version 3.2) software.
Dynamic PET scans of mice 1.5-90 min p.i. of 3′-aza-2′-[^18F]fluorofolic acid and at 60-150 min p.i. were performed. Static PET scans of [^18F]-2′3′-aza-folic acid were typically performed with a scan time from 120-150 min p.i. […] The uptake in other non-target organs was negligible, the only exceptions being the liver, kidneys and salivary glands.

[1] = Stability experiments using glutathione / S9-fraction; type: in vitro ADME, human; conditions: 37° C., 1 h, radio-UPLC
Description: (§1) Radio-UPLC: For stability studies, an ultra-performance liquid chromatography (UPLC™, Waters) system, equipped with an Acquity UPLC BEH C18 column (1.7 μm, 2.1×50 mm, Waters) and a coincidence detector (FlowStar LB513, Berthold) was used with following solvent system: eluent A was a NaH2PO4/Na2HPO4 buffer (0.05 M, pH 7.4) and eluent B was acetonitrile. A gradient from 0-4.0 min 100%-40% A, at a flow rate of 0.6 ml/min was used.
Glutathione (0.1 M, 100 μl), S9-fraction (20 mg/ml, 50 μl) and KH2PO4/K2HPO4 buffer (pH 7.4, 0.5 M, 200 μl) were diluted with water (612 μl) to a volume of […] and [^18F]-3′-aza-2′-fluorofolic acid (38 μl, approx. 15 MBq) was added. The mixture was incubated at 37° C. At several time points aliquots (100 μl) were drawn and the reaction was stopped by pouring the sample into ice-cold methanol (200 μl). Each sample was diluted with NaH2PO4/Na2HPO4 buffer (pH 7.4, 0.05 M, 600 μl). Every time point was performed as duplicates and analyzed on a radio-UPLC system.

[2] = Ex vivo metabolite studies in KB tumor bearing mice; conditions: i.v., radio-UPLC
Description: as §1
For the determination of radiometabolites in vivo, 3′-aza-2′-[^18F]fluorofolic acid (60-70 MBq) was intravenously injected into KB tumor bearing mice (n=2). After 5 min, blood samples were drawn from the opposite vein and the animals were sacrificed 30 min after radiotracer injection. The whole blood, liver, tumor and urine were collected. Blood samples were centrifuged at 5000 g for 5 min at 4° C. The proteins of the plasma samples were precipitated by addition of the same volume of ice-cold methanol followed by centrifugation. The supernatants of the plasma and the urine sample were diluted with PBS buffer and analyzed by radio-UPLC. Liver and tumor tissue were homogenized in an equal volume of PBS using a PT 1200 C Polytron (Kinematica AG), respectively. After addition of the same volume of ice-cold MeOH, the mixture was centrifuged at 5000 g for 5 min and 4° C. The supernatant was cleared from remaining proteins by addition of ice-cold methanol, followed by centrifugation. The resulting supernatant fractions were diluted with PBS buffer and analyzed by radio-UPLC.

[3] = Stability experiments using liver microsomes (human); type: in vitro ADME; conditions: 37° C., 1 h, NADPH regenerating system, radio-UPLC
Excerpt: General: Reagents and solvents were purchased from Sigma-Aldrich Chemie GmbH, Acros Organics or VWR International AG if nothing else is mentioned. All chemicals were used as supplied. Human and mouse (female CD-1) microsomes and the NADPH regenerating systems were purchased from BD biosciences.
as §1
To a mixture of KH2PO4/K2HPO4 buffer (pH 7.4, 0.5 M, 200 μl), NADPH regenerating system A (50 μl), NADPH regenerating system B (10 μl), an aliquot of [^18F]-3′-aza-2′-fluorofolic acid (38 μl, approx. 15 MBq) was added and filled up with water (677 μl) to a volume of 975 μl and preincubated at 37° C. Then, mouse or human liver microsomes (20 mg/ml, 25 μl) were added and incubated at 37° C. After several time points (0, 20, 40 and 60 min) aliquots (100 μl) were drawn and the enzymatical reaction was stopped by purring the solution into ice-cold methanol (200 μl). […] Every time point was performed as a triplicate and analyzed on a radio-UPLC system. […]

[4] = PET, pemetrexed 400 μg 60 min prior to the radiotracer

Nc1nc2ncc(CNc3ccc(C(=O)N[C@@H](CCC(=O)O)C(=O)O)c([18F])n3)nc2c(=O)[nH]1 [3′-aza-2′-[^18F]fluorofolic acid]
Total cell uptake (KB cells): about 78.17% | Internalized fraction (KB cells; stripping buffer pH 3): 18.56% | Uptake in the tumor tissue and in the kidneys with coinjected folic acid (KB tumor xenografts; PET 120-150 min p.i., excess folic acid 100 μg): reduced uptake | Accumulation in the liver after preinjection of pemetrexed (KB tumor xenografts; [4]): very strong reduction | Kidney uptake after preinjection of pemetrexed (KB tumor xenografts; [4]): reduced kidney uptake | Tumor uptake after preinjection of pemetrexed (KB tumor xenografts; [4]): high tumor uptake | Specific uptake in KB tumor xenografts (KB tumor xenografts; quoted with static baseline PET scan 120-150 min p.i.): 12.6±1.8 % ID/g | Uptake in other non-target organs (except liver, kidneys and salivary glands) (KB tumor xenografts; static baseline PET scan 120-150 min p.i.): negligible | Stability with glutathione and S9-fraction [1]: completely stable | Radiometabolites in liver ([2]; 30 min p.i.): signs of metabolism | Radiometabolites in tumor ([2]; 30 min p.i.): no detectable amounts of metabolites | Radiometabolites in urine ([2]; 30 min p.i.): no detectable amounts of metabolites | Radiometabolites in plasma ([2]; plasma sample 5 min p.i.): no detectable amounts of metabolites | Radiometabolites in plasma ([2]; plasma sample 30 min p.i.): no detectable amounts of metabolites | Stability in human liver microsomes [3]: completely stable
